One assay concerns the target PI3 Kinase α (Homo sapiens, UniProt P42336). Nature of the assay: Fluorescence polarization assay for PI3K (PI3 Kinase α). The conditions noted are these: diC8-PI(4,5)P2 substrate, 25 μM ATP, one hour at 25° C. It counts as biochemical.
Another assay addresses PI3 Kinase γ (Homo sapiens, UniProt P48736). Nature of the assay: Fluorescence polarization assay for PI3K (PI3 Kinase γ). It counts as biochemical. The settings on record: diC8-PI(4,5)P2 substrate, 25 μM ATP, one hour at 25° C. Background: Fluorescence polarisation rises when a labelled molecule tumbles more slowly, as on binding a larger partner.

Usually IC50 stands for the concentration needed to halve the response being measured. Read a high IC50 as lower potency.

Chain of PI3 Kinase α (P42336 whole entry): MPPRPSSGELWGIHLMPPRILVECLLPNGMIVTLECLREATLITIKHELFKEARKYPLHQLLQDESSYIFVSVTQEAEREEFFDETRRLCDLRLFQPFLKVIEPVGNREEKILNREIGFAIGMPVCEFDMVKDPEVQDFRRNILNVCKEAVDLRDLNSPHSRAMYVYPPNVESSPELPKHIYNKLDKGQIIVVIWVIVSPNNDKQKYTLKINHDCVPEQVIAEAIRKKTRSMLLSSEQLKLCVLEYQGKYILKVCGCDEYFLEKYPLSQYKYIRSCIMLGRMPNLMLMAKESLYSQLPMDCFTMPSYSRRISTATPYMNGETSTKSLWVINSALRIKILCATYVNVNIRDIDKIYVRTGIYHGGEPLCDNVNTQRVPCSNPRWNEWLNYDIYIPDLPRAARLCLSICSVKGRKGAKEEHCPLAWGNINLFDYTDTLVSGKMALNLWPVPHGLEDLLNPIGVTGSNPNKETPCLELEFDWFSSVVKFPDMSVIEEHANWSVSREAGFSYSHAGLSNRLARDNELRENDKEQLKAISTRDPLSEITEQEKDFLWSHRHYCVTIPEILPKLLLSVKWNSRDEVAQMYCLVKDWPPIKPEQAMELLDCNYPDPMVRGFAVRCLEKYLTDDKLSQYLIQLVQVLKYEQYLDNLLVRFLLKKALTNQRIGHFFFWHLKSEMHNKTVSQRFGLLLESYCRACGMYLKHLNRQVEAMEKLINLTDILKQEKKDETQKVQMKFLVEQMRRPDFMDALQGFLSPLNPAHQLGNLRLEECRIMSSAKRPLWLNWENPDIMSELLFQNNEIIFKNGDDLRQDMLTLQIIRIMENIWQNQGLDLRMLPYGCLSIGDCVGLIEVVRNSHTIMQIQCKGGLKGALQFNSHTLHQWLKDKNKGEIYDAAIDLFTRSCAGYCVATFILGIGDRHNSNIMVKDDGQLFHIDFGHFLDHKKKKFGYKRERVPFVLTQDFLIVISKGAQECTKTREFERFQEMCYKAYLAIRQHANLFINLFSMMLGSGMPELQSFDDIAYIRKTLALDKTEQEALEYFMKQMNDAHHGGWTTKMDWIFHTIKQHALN
Chain of PI3 Kinase α (P27986 whole entry partner): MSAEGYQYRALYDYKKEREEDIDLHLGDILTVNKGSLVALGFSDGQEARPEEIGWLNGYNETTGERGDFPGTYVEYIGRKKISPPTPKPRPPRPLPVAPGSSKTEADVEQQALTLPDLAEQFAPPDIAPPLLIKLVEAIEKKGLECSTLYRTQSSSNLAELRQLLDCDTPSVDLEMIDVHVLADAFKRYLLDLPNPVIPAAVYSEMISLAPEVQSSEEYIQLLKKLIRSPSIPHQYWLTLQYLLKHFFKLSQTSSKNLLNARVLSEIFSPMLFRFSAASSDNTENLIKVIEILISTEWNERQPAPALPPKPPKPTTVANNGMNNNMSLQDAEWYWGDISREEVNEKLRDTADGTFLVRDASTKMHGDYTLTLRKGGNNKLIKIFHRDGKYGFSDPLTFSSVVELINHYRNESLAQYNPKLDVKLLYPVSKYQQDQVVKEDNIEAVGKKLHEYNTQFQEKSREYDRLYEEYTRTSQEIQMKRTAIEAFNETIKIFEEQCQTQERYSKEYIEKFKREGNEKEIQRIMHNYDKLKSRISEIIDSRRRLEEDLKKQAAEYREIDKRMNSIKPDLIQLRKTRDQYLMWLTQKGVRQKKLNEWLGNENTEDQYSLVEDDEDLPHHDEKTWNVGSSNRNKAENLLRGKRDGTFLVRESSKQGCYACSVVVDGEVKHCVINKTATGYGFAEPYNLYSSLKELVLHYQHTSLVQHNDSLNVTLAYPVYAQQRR
Chain of PI3 Kinase γ (P48736 whole entry): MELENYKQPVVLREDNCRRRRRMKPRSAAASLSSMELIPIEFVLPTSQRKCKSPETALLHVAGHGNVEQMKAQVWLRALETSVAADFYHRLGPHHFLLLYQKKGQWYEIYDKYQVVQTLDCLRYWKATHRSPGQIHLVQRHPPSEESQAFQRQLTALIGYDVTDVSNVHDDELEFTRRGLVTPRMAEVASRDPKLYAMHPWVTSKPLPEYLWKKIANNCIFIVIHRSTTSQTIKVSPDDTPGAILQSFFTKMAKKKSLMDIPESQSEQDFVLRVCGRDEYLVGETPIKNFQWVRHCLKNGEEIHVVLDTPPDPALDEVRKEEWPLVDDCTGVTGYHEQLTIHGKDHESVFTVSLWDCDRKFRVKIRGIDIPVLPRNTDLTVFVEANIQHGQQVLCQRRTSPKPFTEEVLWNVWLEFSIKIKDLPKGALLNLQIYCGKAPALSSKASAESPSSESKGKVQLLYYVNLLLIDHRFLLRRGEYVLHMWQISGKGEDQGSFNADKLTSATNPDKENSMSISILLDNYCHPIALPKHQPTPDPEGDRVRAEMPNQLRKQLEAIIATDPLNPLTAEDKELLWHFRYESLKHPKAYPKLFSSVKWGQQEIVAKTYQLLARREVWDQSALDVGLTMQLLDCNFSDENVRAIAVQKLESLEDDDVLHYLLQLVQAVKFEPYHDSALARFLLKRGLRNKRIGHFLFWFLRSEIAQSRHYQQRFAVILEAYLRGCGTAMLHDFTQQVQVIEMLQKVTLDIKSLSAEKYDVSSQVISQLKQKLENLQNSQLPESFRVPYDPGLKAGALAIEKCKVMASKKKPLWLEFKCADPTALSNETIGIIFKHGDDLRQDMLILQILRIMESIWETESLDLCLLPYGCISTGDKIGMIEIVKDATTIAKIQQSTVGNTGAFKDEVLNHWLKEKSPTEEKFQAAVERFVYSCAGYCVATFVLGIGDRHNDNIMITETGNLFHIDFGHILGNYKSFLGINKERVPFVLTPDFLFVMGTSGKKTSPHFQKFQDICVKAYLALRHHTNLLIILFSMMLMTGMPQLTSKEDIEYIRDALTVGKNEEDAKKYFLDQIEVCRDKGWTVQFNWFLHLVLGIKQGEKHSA

As to `c1cc(-c2nc(N3CCOCC3)c3nnn(CCCN4CCCC4)c3n2)c2cn[nH]c2c1` [Example 11, 5-(1H-indazol-4-yl)-7-morpholin-4-yl-3-(3-pyrrolidin-1-ylpropyl)-3H-[1,2,3]triazolo[4,5-d]pyrimidine], the IC50 against PI3 Kinase α turned out to be 83 nM; against PI3 Kinase γ it was 132 nM.

For `Oc1cncc(-c2nc(N3CCOCC3)c3nnn(C4CCNCC4)c3n2)c1` [Example 12, 5-(7-morpholin-4-yl-3-piperidin-4-yl-3H-[1,2,3]triazolo[4,5-d]pyrimidin-5-yl)pyridin-3-ol], the figures for the IC50 on PI3 Kinase α and against PI3 Kinase γ were 80 nM and 168 nM, respectively.

In the case of `Oc1cncc(-c2nc(N3CCOCC3)c3nnn(C4CCN(Cc5ccco5)CC4)c3n2)c1` [Example 13, 5-{3-[1-(2-furylmethyl)piperidin-4-yl]-7-morpholin-4-yl-3H-[1,2,3]triazolo[4,5-d]pyrimidin-5-yl}pyridin-3-ol], the IC50 on PI3 Kinase α worked out at 31 nM; on PI3 Kinase γ, 111 nM.

For `Oc1cncc(-c2nc(N3CCOCC3)c3nnn(C4CCN(Cc5ccc(F)cc5)CC4)c3n2)c1` [Example 14, 5-{3-[1-(4-fluorobenzyl)piperidin-4-yl]-7-morpholin-4-yl-3H-[1,2,3]triazolo[4,5-d]pyrimidin-5-yl}pyridin-3-ol], the IC50 against PI3 Kinase α amounted to 60 nM; against PI3 Kinase γ it was 94 nM.

In the case of `Oc1cncc(-c2nc(N3CCOCC3)c3nnn(C4CCN(Cc5ccc(Br)nc5)CC4)c3n2)c1` [Example 15, 5-(3-{1-[(6-bromopyridin-3-yl)methyl]piperidin-4-yl}-7-morpholin-4-yl-3H-[1,2,3]triazolo[4,5-d]pyrimidin-5-yl)pyridin-3-ol], the IC50 against PI3 Kinase α came to 16 nM; on PI3 Kinase γ, 106 nM.

As to `Oc1cncc(-c2nc(N3CCOCC3)c3nnn(C4CCN(Cc5cncc(Br)c5)CC4)c3n2)c1` [Example 16, 5-(3-{1-[(5-bromopyridin-3-yl)methyl]piperidin-4-yl}-7-morpholin-4-yl-3H-[1,2,3]triazolo[4,5-d]pyrimidin-5-yl)pyridin-3-ol], the 50% inhibitory concentration (IC50) worked out at 61 nM on PI3 Kinase α and 161 nM at PI3 Kinase γ.

Regarding `CN(C)CCCOc1ccc(CN2CCC(n3nnc4c(N5CCOCC5)nc(-c5cncc(O)c5)nc43)CC2)cc1` [Example 17, 5-[3-(1-{4-[3-(dimethylamino)propoxy]benzyl}piperidin-4-yl)-7-morpholin-4-yl-3H-[1,2,3]triazolo[4,5-d]pyrimidin-5-yl]pyridin-3-ol], the figures for the IC50 against PI3 Kinase α and against PI3 Kinase γ were 217 nM and 370 nM, respectively.

Turning to `Oc1cncc(-c2nc(N3CCOCC3)c3nnn(C4CCN(Cc5ccc(F)c(F)c5)CC4)c3n2)c1` [Example 18, 5-{3-[1-(3,4-difluorobenzyl)piperidin-4-yl]-7-morpholin-4-yl-3H-[1,2,3]triazolo[4,5-d]pyrimidin-5-yl}pyridin-3-ol], the half-maximal inhibitory concentration (IC50) was 75 nM against PI3 Kinase α and 261 nM on PI3 Kinase γ.

Turning to `Cn1cccc1CN1CCC(n2nnc3c(N4CCOCC4)nc(-c4cncc(O)c4)nc32)CC1` [Example 19, 5-(3-{1-[(1-methyl-1H-pyrrol-2-yl)methyl]piperidin-4-yl}-7-morpholin-4-yl-3H-[1,2,3]triazolo[4,5-d]pyrimidin-5-yl)pyridin-3-ol], the figures for the IC50 against PI3 Kinase α and on PI3 Kinase γ were 83 nM and 277 nM, respectively.

`Oc1cncc(-c2nc(N3CCOCC3)c3nnn(C4CCN(Cc5ccc(Cl)nc5)CC4)c3n2)c1` [Example 20, 5-(3-{1-[(6-chloropyridin-3-yl)methyl]piperidin-4-yl}-7-morpholin-4-yl-3H-[1,2,3]triazolo[4,5-d]pyrimidin-5-yl)pyridin-3-ol]: the IC50 against PI3 Kinase α was 541 nM; against PI3 Kinase γ it was 454 nM.

As to `Cc1ccc(CN2CCC(n3nnc4c(N5CCOCC5)nc(-c5cncc(O)c5)nc43)CC2)s1` [Example 21, 5-(3-{1-[(5-methyl-2-thienyl)methyl]piperidin-4-yl}-7-morpholin-4-yl-3H-[1,2,3]triazolo[4,5-d]pyrimidin-5-yl)pyridin-3-ol], the half-inhibitory concentration (IC50) on PI3 Kinase α came to 66 nM; against PI3 Kinase γ, 240 nM.

For the compound `CN1CCC(n2nnc3c(N4CCOCC4)nc(-c4cncc(O)c4)nc32)CC1` [Example 22, 5-[3-(1-methylpiperidin-4-yl)-7-morpholin-4-yl-3H-[1,2,3]triazolo[4,5-d]pyrimidin-5-yl]pyridin-3-ol], the IC50 at PI3 Kinase α was found to be 304 nM; on PI3 Kinase γ, 318 nM.

Turning to `Oc1cncc(-c2nc(N3CCOCC3)c3nnn(C4CCN(Cc5ccc(F)cc5F)CC4)c3n2)c1` [Example 23, 5-{3-[1-(2,4-difluorobenzyl)piperidin-4-yl]-7-morpholin-4-yl-3H-[1,2,3]triazolo[4,5-d]pyrimidin-5-yl}pyridin-3-ol], the IC50 amounted to 68 nM on PI3 Kinase α and 44 nM against PI3 Kinase γ.

Turning to `Cn1cncc1CN1CCC(n2nnc3c(N4CCOCC4)nc(-c4cncc(O)c4)nc32)CC1` [Example 24, 5-(3-{1-[(1-methyl-1H-imidazol-5-yl)methyl]piperidin-4-yl}-7-morpholin-4-yl-3H-[1,2,3]triazolo[4,5-d]pyrimidin-5-yl)pyridin-3-ol], the half-maximal inhibitory concentration (IC50) on PI3 Kinase α was 86 nM; against PI3 Kinase γ, 219 nM.

On to `CC(C)(C)C(=O)Nc1ncccc1CN1CCC(n2nnc3c(N4CCOCC4)nc(-c4cncc(O)c4)nc32)CC1` [Example 25, N-[3-({4-[5-(5-hydroxypyridin-3-yl)-7-morpholin-4-yl-3H-[1,2,3]triazolo[4,5-d]pyrimidin-3-yl]piperidin-1-yl}methyl)pyridin-2-yl]-2,2-dimethylpropanamide], for which the IC50 on PI3 Kinase α came out at 143 nM; against PI3 Kinase γ, 407 nM.

`Cc1cc(CN2CCC(n3nnc4c(N5CCOCC5)nc(-c5cncc(O)c5)nc43)CC2)sc1C` [Example 26, 5-(3-{1-[(4,5-dimethyl-2-thienyl)methyl]piperidin-4-yl}-7-morpholin-4-yl-3H-[1,2,3]triazolo[4,5-d]pyrimidin-5-yl)pyridin-3-ol]: the IC50 at PI3 Kinase α came out at 16 nM; against PI3 Kinase γ, 108 nM.

`CCCCN1CCC(n2nnc3c(N4CCOCC4)nc(-c4cncc(O)c4)nc32)CC1` [Example 27, 5-[3-(1-butylpiperidin-4-yl)-7-morpholin-4-yl-3H-[1,2,3]triazolo[4,5-d]pyrimidin-5-yl]pyridin-3-ol]: the IC50 against PI3 Kinase α was determined as 385 nM; against PI3 Kinase γ, 2530 nM.

For the compound `Oc1cncc(-c2nc(N3CCOCC3)c3nnn(C4CCN(CN5CCN(Cc6ccccc6)CC5)CC4)c3n2)c1` [Example 28, 5-(3-{1-[(4-benzylpiperazin-1-yl)methyl]piperidin-4-yl}-7-morpholin-4-yl-3H-[1,2,3]triazolo[4,5-d]pyrimidin-5-yl)pyridin-3-ol], the IC50 on PI3 Kinase α was determined as 998 nM; at PI3 Kinase γ, 8830 nM.

As to `Oc1cncc(-c2nc(N3CCOCC3)c3nnn(C4CCN(Cc5ccc[nH]5)CC4)c3n2)c1` [Example 29, 5-{7-morpholin-4-yl-3-[1-(1H-pyrrol-2-ylmethyl)piperidin-4-yl]-3H-[1,2,3]triazolo[4,5-d]pyrimidin-5-yl}pyridin-3-ol], the IC50 on PI3 Kinase α stood at 1140 nM; at PI3 Kinase γ, 3110 nM.

For the compound `Cn1nccc1CN1CCC(n2nnc3c(N4CCOCC4)nc(-c4cncc(O)c4)nc32)CC1` [Example 30, 5-(3-{1-[(1-methyl-1H-pyrazol-5-yl)methyl]piperidin-4-yl}-7-morpholin-4-yl-3H-[1,2,3]triazolo[4,5-d]pyrimidin-5-yl)pyridin-3-ol], the IC50 was found to be 231 nM on PI3 Kinase α and 2860 nM on PI3 Kinase γ.

Take `Oc1cncc(-c2nc(N3CCOCC3)c3nnn(C4CCN(Cc5ccc(-c6ccncc6)cc5)CC4)c3n2)c1` [Example 31, 5-{7-morpholin-4-yl-3-[1-(4-pyridin-4-ylbenzyl)piperidin-4-yl]-3H-[1,2,3]triazolo[4,5-d]pyrimidin-5-yl}pyridin-3-ol]: the figures for the IC50 against PI3 Kinase α and on PI3 Kinase γ were 298 nM and 2280 nM, respectively.

Turning to `CCn1nnc2c(N3CCOCC3)nc(-c3ccc(N)cc3)nc21` [Example 32, 4-(3-Ethyl-7-morpholin-4-yl-3H-[1,2,3]triazolo[4,5-d]pyrimidin-5-yl)-phenylamine], the values for the IC50 at PI3 Kinase α and against PI3 Kinase γ were 554 nM and 4070 nM, respectively.

As for `CCn1nnc2c(N3CCOCC3)nc(-c3ccc(NC(=O)Nc4ccncc4)cc3)nc21` [Example 33, 1-[4-(3-ethyl-7-morpholin-4-yl-3H-[1,2,3]triazolo[4,5-d]pyrimidin-5-yl)phenyl]-3-pyridin-4-ylurea], the results for the IC50 against PI3 Kinase α and against PI3 Kinase γ were 3 nM and 19 nM, respectively.

As for `CCn1nnc2c(N3CCOCC3)nc(-c3ccc(NC(=O)NCCN(C)C)cc3)nc21` [Example 34, 1-[2-(dimethylamino)ethyl]-3-[4-(3-ethyl-7-morpholin-4-yl-3H-[1,2,3]triazolo[4,5-d]pyrimidin-5-yl)phenyl]urea], the half-inhibitory concentration (IC50) turned out to be 132 nM at PI3 Kinase α and 309 nM against PI3 Kinase γ.

For `CCn1nnc2c(N3CCOCC3)nc(-c3ccc(NC(=O)Nc4ccnc(C)c4)cc3)nc21` [Example 35, 1-[4-(3-ethyl-7-morpholin-4-yl-3H-[1,2,3]triazolo[4,5-d]pyrimidin-5-yl)phenyl]-3-(2-methylpyridin-4-yl)urea], the IC50 at PI3 Kinase α is 8 nM; at PI3 Kinase γ it was 37 nM.

For `CCn1nnc2c(N3CCOCC3)nc(-c3ccc(NC(=O)Nn4cnnc4)cc3)nc21` [Example 36, 1-[4-(3-ethyl-7-morpholin-4-yl-3H-[1,2,3]triazolo[4,5-d]pyrimidin-5-yl)phenyl]-3-(4H-1,2,4-triazol-4-yl)urea], the results for the concentration for half-maximal inhibition (IC50) on PI3 Kinase α and against PI3 Kinase γ were 179 nM and 895 nM, respectively.

Take `CCn1nnc2c(N3CCOCC3)nc(-c3ccc(NC(=O)Nc4nccs4)cc3)nc21` [Example 37, 1-[4-(3-ethyl-7-morpholin-4-yl-3H-[1,2,3]triazolo[4,5-d]pyrimidin-5-yl)phenyl]-3-(1,3-thiazol-2-yl)urea]: the IC50 stood at 73.5 nM on PI3 Kinase α and 156 nM at PI3 Kinase γ.

Consider `CCn1nnc2c(N3CCOCC3)nc(-c3ccc(NC(=O)OCCc4ccc(N)cc4)cc3)nc21` [Example 38, 2-(4-aminophenyl)ethyl [4-(3-ethyl-7-morpholin-4-yl-3H-[1,2,3]triazolo[4,5-d]pyrimidin-5-yl)phenyl]carbamate], for which the figures for the IC50 on PI3 Kinase α and at PI3 Kinase γ were 341 nM and 7440 nM, respectively.

The values above are taken from patent publication US20090181963A1, “3H-[1,2,3]TRIAZOLO[4,5-D]PYRIMIDINE COMPOUNDS, THEIR USE AS mTOR KINASE AND PI3 KINASE INHIBITORS, AND THEIR [sequence]” (Wyeth, priority 2008, published 2009).
